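Test compounds were applied to cells in 96-well plates for 48 hours at 5 doses. Here, GI50 denotes the concentration required for 50% inhibition of growth. TGI marks complete inhibition of growth.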
Columns and labels:
Assay in all cases: growth of human tumour cells (NCI), 48 h
786-0 renal = system: 786-0 renal
A498 renal = system: A498 renal
A549 NSCLC = system: A549 NSCLC
ACHN renal = system: ACHN renal
BT-549 breast = system: BT-549 breast
CAKI-1 renal = system: CAKI-1 renal
CCRF-CEM leukemia = system: CCRF-CEM leukemia
COLO 205 colon = system: COLO 205 colon
DU-145 prostate = system: DU-145 prostate
EKVX NSCLC = system: EKVX NSCLC
HCC-2998 colon = system: HCC-2998 colon
HCT-116 colon = system: HCT-116 colon
HCT-15 colon = system: HCT-15 colon
HL-60(TB) leukemia = system: HL-60(TB) leukemia
HOP-62 NSCLC = system: HOP-62 NSCLC
HOP-92 NSCLC = system: HOP-92 NSCLC
HS 578T breast = system: HS 578T breast
HT29 colon = system: HT29 colon
IGROV1 ovarian = system: IGROV1 ovarian
K-562 leukemia = system: K-562 leukemia
KM12 colon = system: KM12 colon
LOX IMVI melanoma = system: LOX IMVI melanoma
M14 melanoma = system: M14 melanoma
MALME-3M melanoma = system: MALME-3M melanoma
MCF7 breast = system: MCF7 breast
MDA-MB-231 breast = system: MDA-MB-231 breast
MDA-MB-435 = system: MDA-MB-435
MDA-MB-468 breast = system: MDA-MB-468 breast
MOLT-4 leukemia = system: MOLT-4 leukemia
NCI-H226 lung = system: NCI-H226 lung
NCI-H23 lung = system: NCI-H23 lung
NCI-H460 lung = system: NCI-H460 lung
NCI-H522 lung = system: NCI-H522 lung
OVCAR-3 ovarian = system: OVCAR-3 ovarian
OVCAR-4 ovarian = system: OVCAR-4 ovarian
OVCAR-5 ovarian = system: OVCAR-5 ovarian
OVCAR-8 ovarian = system: OVCAR-8 ovarian
PC-3 prostate = system: PC-3 prostate
RPMI-8226 leukemia = system: RPMI-8226 leukemia
RXF 393 renal = system: RXF 393 renal
SF-268 CNS = system: SF-268 CNS
SF-295 CNS = system: SF-295 CNS
SF-539 CNS = system: SF-539 CNS
SK-MEL-28 melanoma = system: SK-MEL-28 melanoma
SK-MEL-5 melanoma = system: SK-MEL-5 melanoma
SK-OV-3 ovarian = system: SK-OV-3 ovarian
SN12C renal = system: SN12C renal
SNB-19 CNS = system: SNB-19 CNS
SNB-75 CNS = system: SNB-75 CNS
SR leukemia = system: SR leukemia
SW-620 colon = system: SW-620 colon
T-47D breast = system: T-47D breast
TK-10 renal = system: TK-10 renal
U251 CNS = system: U251 CNS
UACC-257 melanoma = system: UACC-257 melanoma
UACC-62 melanoma = system: UACC-62 melanoma
UO-31 renal = system: UO-31 renal

## CC(C)Sc1nc(NCCc2c[nH]c3ccccc23)c(C#N)c(-c2ccc(F)cc2)n1
786-0 renal
  GI50: 10.6 µM
  TGI: 22.7 µM
A498 renal
  GI50: 16.4 µM
  TGI: 32.2 µM
A549 NSCLC
  GI50: 12.7 µM
  TGI: 26.4 µM
ACHN renal
  GI50: 11.1 µM
  TGI: 23.1 µM
BT-549 breast
  GI50: 11.7 µM
  TGI: 25 µM
CAKI-1 renal
  GI50: 10.1 µM
  TGI: 22.2 µM
CCRF-CEM leukemia
  GI50: 6.34 µM
  TGI: 65.6 µM
COLO 205 colon
  GI50: 7.98 µM
  TGI: 20.7 µM
DU-145 prostate
  GI50: 12 µM
  TGI: 27 µM
EKVX NSCLC
  GI50: 11.4 µM
  TGI: 24.5 µM
HCC-2998 colon
  GI50: 7.67 µM
  TGI: 20.2 µM
HCT-116 colon
  GI50: 3.75 µM
  TGI: 14.1 µM
HCT-15 colon
  GI50: 3.74 µM
  TGI: 14.7 µM
HL-60(TB) leukemia
  GI50: 11.4 µM
  TGI: 54.5 µM
HOP-62 NSCLC
  GI50: 1.97 µM
  TGI: 4.12 µM
HOP-92 NSCLC
  GI50: 13.1 µM
  TGI: 30.1 µM
HS 578T breast
  GI50: 10.2 µM
  TGI: 43.4 µM
HT29 colon
  GI50: 4.61 µM
  TGI: 16 µM
IGROV1 ovarian
  GI50: 12.3 µM
  TGI: 26.3 µM
K-562 leukemia
  GI50: 4.87 µM
  TGI: > 100 µM
KM12 colon
  GI50: 4.92 µM
  TGI: 17.9 µM
LOX IMVI melanoma
  GI50: 3.65 µM
  TGI: 12.8 µM
M14 melanoma
  GI50: 9.86 µM
  TGI: 23.9 µM
MALME-3M melanoma
  GI50: 14.1 µM
  TGI: 27.2 µM
MCF7 breast
  GI50: 5.42 µM
  TGI: 18.8 µM
MDA-MB-231 breast
  GI50: 9.08 µM
  TGI: 22.1 µM
MDA-MB-435
  GI50: 13.4 µM
  TGI: 26.8 µM
MDA-MB-468 breast
  GI50: 3.21 µM
  TGI: 12 µM
MOLT-4 leukemia
  GI50: 6.25 µM
  TGI: 39.8 µM
NCI-H226 lung
  GI50: 9.18 µM
  TGI: 21.9 µM
NCI-H23 lung
  GI50: 14.3 µM
  TGI: 28.3 µM
NCI-H460 lung
  GI50: 4.25 µM
  TGI: 15.1 µM
NCI-H522 lung
  GI50: 12.5 µM
  TGI: 26 µM
OVCAR-3 ovarian
  GI50: 13.3 µM
  TGI: 27.7 µM
OVCAR-4 ovarian
  GI50: 11.4 µM
  TGI: 28.8 µM
OVCAR-5 ovarian
  GI50: 12.6 µM
  TGI: 25.1 µM
OVCAR-8 ovarian
  GI50: 11.6 µM
  TGI: 26.1 µM
PC-3 prostate
  GI50: 5.38 µM
  TGI: 40.7 µM
RPMI-8226 leukemia
  GI50: 6.7 µM
  TGI: 49.9 µM
RXF 393 renal
  GI50: 4.32 µM
  TGI: 16.5 µM
SF-268 CNS
  GI50: 12.8 µM
  TGI: 42.2 µM
SF-295 CNS
  GI50: 12 µM
  TGI: 25.6 µM
SF-539 CNS
  GI50: 10.3 µM
  TGI: 23.6 µM
SK-MEL-28 melanoma
  GI50: 12.7 µM
  TGI: 27.1 µM
SK-MEL-5 melanoma
  GI50: 6.05 µM
  TGI: 18.6 µM
SK-OV-3 ovarian
  GI50: 17.2 µM
  TGI: 49.3 µM
SN12C renal
  GI50: 12.5 µM
  TGI: 25.1 µM
SNB-19 CNS
  GI50: 14.9 µM
  TGI: 31 µM
SNB-75 CNS
  GI50: 13.6 µM
  TGI: 47.2 µM
SR leukemia
  GI50: 2.92 µM
  TGI: 28.7 µM
SW-620 colon
  GI50: 7.84 µM
  TGI: 21.1 µM
T-47D breast
  GI50: 4.82 µM
  TGI: 17.3 µM
TK-10 renal
  GI50: 17.4 µM
  TGI: 32.4 µM
U251 CNS
  GI50: 7.65 µM
  TGI: 20.2 µM
UACC-257 melanoma
  GI50: 15.4 µM
  TGI: 32.1 µM
UACC-62 melanoma
  GI50: 12.9 µM
  TGI: 26.6 µM
UO-31 renal
  GI50: 11.6 µM
  TGI: 24.1 µM

Source: PubChem BioAssay (NCI)
